Test system: MCF-7 cells
Experiment: Caspase-Glo 3/7 apoptosis assay
Type: cell-based, human
Details: MCF-7, 10 nM
Source text: To elucidate the decrease in cell viability observed, we evaluated the potential increase in apoptosis using the […] Caspase-Glo 3/7 assay system. Upon cell lysis, active caspases cleave a luminogenic substrate, releasing aminoluciferin, which is subsequently converted to light by luciferase. The intensity of the signal directly correlates with the levels of apoptosis. […] This destabilization reduces the levels of proteins essential for cancer cell survival, resulting in cumulative cellular stress, diminished proliferation, and enhanced cytotoxicity. […] This enhanced effect is likely due to the catalytic nature of the molecular glue degraders, offering promising potential for cancer treatment.
MCF-7 cells were seeded in 96-well plates to 80% confluency and treated with synthesized compounds at four concentrations (1 nM–1 μM) for 24 and 48 h. Cell apoptosis was analyzed using the Caspase-Glo 3/7 Assay System (Promega, G8090). Each sample was incubated with Caspase-Glo 3/7 solution for 1 h, followed by luminescence measurement. Luminescence was measured […] using the Synergy H1 Hybrid Multi-Mode Microplate Reader (Biotek, Agilent). Cell apoptosis was calculated as the percent increase in luminescence of treated cells compared to untreated controls. All experiments were performed in triplicate.

O=C1CCC(N2C(=O)c3cccc(NCc4cn(-c5ccc6sc(C(=O)O)cc6c5)nn4)c3C2=O)C(=O)N1 (stereo not shown) [PRO-HuR3]
apoptosis (caspase 3/7): significant increase in apoptosis

— article PMC12381739, “Druglike Molecular Degraders of the Oncogenic RNA-Binding Protein HuR” (JACS Au, 2025)
